Patent US7858738B2, “Synthetic human peptides and pharmaceutical compositions comprising them for the treatment of systemic lupus erythematosus” (Yeda Research and Development Co., Ltd., priority 2001, dated 2010)

Key:
PBL of SLE patients = test: TGF-β secretion by PBL of SLE patients stimulated with the human 16/6Id mAb (ELISA); assay type: cell-based; conditions: for secretion of TGF-β by PBL: one representative SLE patient, FIG. 9; for Maximum Up-regulation % (TGF-β secretion): percent secretion above that with 16/6Id alone (mean 636 ± 25 pg/ml = 100%); for Up-regulation of TGF-β %: share of 19 SLE patients with up-regulation
Experimental: For this purpose, supernatants were removed from cultures of PBL of various SLE patients following 48 hours incubation with the human 16/6Id mAb in the absence or presence of the peptides hCDR1 or hCDR3. TGF-β was determined by ELISA according to the manufacturer's instructions. Briefly, Maxisorb plates (Nunc) were coated with recombinant human TGFβsRII/Fc chimera (R&D Systems) diluted in PBS (100 ng/ml). After blocking, cell supernatants were added. After 18 hours incubation the detecting biotinylated anti-human TGF-β antibody (R&D Systems) was added. The substrate solution used was the TMB Colour Reagent (Helix Diagnostics) and enzyme activity was evaluated by the MRX ELISA reader using the 570 nm and 630 nm filters.

(NZB×NZW)F1 mice = test: Transfer of splenocytes of peptide-treated mice into (NZB×NZW)F1 mice with full-blown disease; assay type: in vivo
Excerpt: It was of importance to investigate whether the beneficial effects of treatment with hCDR1, that are manifested by the down-regulation of disease manifestations, can be transferred by spleen cells of treated mice. To this end, we have performed an experiment in which 8-month old (NZB×NZW)F1 mice, that suffer already from the full-blown lupus-like disease, were divided into 2 groups. Group 1 was not treated and mice of group 2 were transferred with 20×10^6 spleen cells of 3-month old (NZB×NZW)F1 mice that were injected 3 times (s.c., every other day) with 300 μg/mouse of hCDR1. All splenocytes were injected intraperitoneally. Mice were tested for anti-dsDNA autoantibody production, disease manifestations, and were sacrificed 4 weeks after cell transfer.
The experiment was repeated a few more times using revhCDR1 as control.

Sequence	secretion of TGF-β by PBL (PBL of SLE patients)	Maximum Up-regulation % (TGF-β secretion) (PBL of SLE patients) [%]	Up-regulation of TGF-β % (PBL of SLE patients)	Proteinuria g/L ± SEM ((NZB×NZW)F1 mice; Table 13, recipients of 20 × 10^6 spleen cells from mice treated 3 times s.c. with 300 μg/mouse, non-treated 15.07 ± 4.92) [g/L]	I.C.D ± SEM ((NZB×NZW)F1 mice; Table 13, recipients of 20 × 10^6 spleen cells from treated mice, non-treated 2.25 ± 0.47)	I.C.D ± SEM ((NZB×NZW)F1 mice; Table 14 (repeat experiment), recipients of 20 × 10^6 spleen cells from treated mice, non-treated 2.3 ± 0.26)	Proteinuria g/L ± SEM ((NZB×NZW)F1 mice; Table 14 (repeat experiment), recipients of 20 × 10^6 spleen cells from treated mice, non-treated 10.9 ± 3.05) [g/L]	levels of anti-DNA antibodies ((NZB×NZW)F1 mice; transfer of cells of treated mice, 4 weeks after cell transfer)
GYYWSWIRQPPGKGEEWIG (Human) [hCDR1, 19-mer peptide based on the CDR1 of the heavy chain of the human 16/6Id mAb]	significant up-regulation	305 ± 221	100 (19/19) %	0.97 ± 0.67	0.75 ± 0.47	1.33 ± 0.35	2.91 ± 1.6	mild reduction
YYCARGLLRGGWNDVDYYGMDV (Human) [hCDR3, peptide based on the CDR3 of the heavy chain of the human 16/6Id mAb]	significant up-regulation	338 ± 242	100 (19/19) %					
